In patent publication US20250019374A1, “PROTEIN TYROSINE PHOSPHATASE INHIBITORS AND METHODS OF USE THEREOF” (Calico Life Sciences LLC, priority 2021, published 2025):
Where two headings read alike, the source gives them in different places.

What was measured:
[1] = target: His tagged PTPN2 (TC45) protein (Homo sapiens (Human), UniProt P17706); experiment: PTPN2 Mobility Shift Assay (MSA); format: biochemical; conditions: for Dihydrobenzofuran or Indoline x-fold>potency biochemical: x-fold versus corresponding chromane comparator, PTPN2 MSA
Sequence of His tagged PTPN2 (TC45) protein (P17706 other isoform, or with tags, fused parts or gaps): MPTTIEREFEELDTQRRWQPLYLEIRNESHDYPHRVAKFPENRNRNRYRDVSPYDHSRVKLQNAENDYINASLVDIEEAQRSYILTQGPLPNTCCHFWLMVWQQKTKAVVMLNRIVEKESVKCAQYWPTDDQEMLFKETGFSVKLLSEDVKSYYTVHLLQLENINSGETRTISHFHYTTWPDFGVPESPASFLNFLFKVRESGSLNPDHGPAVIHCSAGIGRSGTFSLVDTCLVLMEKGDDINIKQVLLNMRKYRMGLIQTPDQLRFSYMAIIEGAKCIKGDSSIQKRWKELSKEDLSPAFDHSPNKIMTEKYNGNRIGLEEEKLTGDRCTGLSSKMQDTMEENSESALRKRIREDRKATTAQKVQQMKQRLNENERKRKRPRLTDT
Procedure: Example III-1: Mobility Shift Assay (MSA) Used to Determine Potency of PTPN2 Inhibitors
Compound activity was determined using in house His tagged PTPN2 (TC45) protein (SEQ ID NO: 1) in an in vitro enzymatic reaction. The enzymatic assay used to determine activity was a mobility shift assay using a LabChip EZ Reader by Caliper Life Sciences. The enzymatic reaction was carried out in assay buffer (50 mM HEPES pH 7.5, 1 mM EGTA, 10 mM EDTA, 0.01% Tween® 20, and 2 mM DTT). The compounds were dispensed on a white 384 well ProxiPlate™ (PerkinElmer Catalog #6008289) plate using the Labcyte Echo at varying concentrations (12 point, 1:3 dilution). The enzyme (at 0.5 nM) was incubated with compound for 10 minutes at room temperature. Thereafter, the substrate (phosphorylated insulin receptor probe sequence: ((OG488)-(NH—CH2—CH2—O—CH2—CH2—O—CH2—CO)-T-R-D-I—(PY)-E-T-D-Y—Y—R—K—K—NH2) (SEQ ID NO: 2) was added at 2 μM to the plates and incubated for another 10 minutes at room temperature. Finally, a quench solution (water and 4-bromo-3-(2-oxo-2-propoxyethoxy)-5-(3-{[1-(phenylmethanesulfonyl)piperidin-4-yl]amino}phenyl)thiophene-2-carboxylic acid) was added to the plates, which were then run on the EZ Reader (excitation 488 nm, emission 530 nm) to measure % conversion (the amount of phosphorylated substrate which was de-phosphorylated by PTPN2). […] The % inhibition was then used to calculate the IC50 values.

[2] = tested on: IFNγ-induced STAT1 phosphorylation (pSTAT1) in B16F10 cells; experiment: B16F10 Phospho-STAT1 HTRF proximal pharmacodynamic (PD) assay; format: cell-based, murine; conditions: for EC50: B16-F10, B16F10 cells; for Dihydrobenzofuran or Indoline x-fold>potency cellular: x-fold versus corresponding chromane comparator, B16F10 pSTAT1
Procedure: Example III-3: B16F10 (Murine Melanoma Cells) Phospho-STAT1 HTRF Proximal Pharmacodynamic (PD) Assay
B16F10 cells were grown and maintained in high glucose DMEM (Gibco, Catalog^#11965-092, Dun Laoghaire Co Dublin) supplemented with 10% fetal bovine serum (Gibco, Catalog^#10082-139, Dun Laoghaire Co Dublin). The cells were pelleted and resuspended in high glucose DMEM without phenol red (Gibco, Catalog^#11054-020, Dun Laoghaire Co Dublin), supplemented with 10% fetal bovine serum and plated in a 384 well Corning plate (product^#3765, Corning, NY) at 11,000 cells per well in a volume of 20 μL. The cells were dosed with the compounds of interest using an Echo Liquid Handler (Beckman Coulter, Brea, CA) at 50 μM top dose with 3-fold dilutions down to 0.002679 μM for a 10-point dose response. The plate was incubated for 3 hours at 37° C. and subsequently treated with recombinant mouse IFNγ (R&D Systems, Catalog^#485-MI, Minneapolis, MN; 100 nM final concentration) for 10 minutes at 37° C. to induce STAT1 phosphorylation followed by 3.3 μM staurosporine treatment for 1 hour at 37° C. to terminate phosphorylation. Media was then aspirated and 20 μL of 1× lysis buffer/blocking reagent (Cisbio Phospho-STAT1 kit, part^# 63ADK026PEH, Bedford, MA) was added. The plate was placed on a plate shaker for 30 minutes at room temperature, sealed, and stored at −80° C. until needed. To thaw, the plate was placed on shaker at room temperature until completely thawed while the antibody master mix was made (1:40 Phospho-STAT1 Eu Cryptate antibody, 1:40 Phospho-STAT d2 antibody, with the detection buffer; Cisbio Phospho-STAT1 kit, part^#63ADK026PEH, Bedford, MA). The antibody master mix was then dispensed at 4 μL per well into a 384 ProxiPlate Plus (PerkinElmer, part^#6008289, Waltham, MA) and 16 μL of lysate was added from the Corning plate to the Proxiplate using a VIAFLO 384 (INTEGRA). The plate was incubated for 3 hours at room temperature and read on an EnVision® (Perkin Elmer) plate reader with laser excitation at 335 nm and emission at 665 nm. Dotmatics Studies (Bishop's Stortford, UK) was utilized to generate all dose-response curves and calculate EC50s and are shown in Table 2.

[3] = target: His tagged full-length PTPN1 protein (Homo sapiens (Human), UniProt P18031); experiment: PTPN1 Mobility Shift Assay (MSA); format: biochemical; conditions: enzyme 0.5 nM, substrate 2 μM
Sequence of His tagged full-length PTPN1 protein (P18031 whole entry): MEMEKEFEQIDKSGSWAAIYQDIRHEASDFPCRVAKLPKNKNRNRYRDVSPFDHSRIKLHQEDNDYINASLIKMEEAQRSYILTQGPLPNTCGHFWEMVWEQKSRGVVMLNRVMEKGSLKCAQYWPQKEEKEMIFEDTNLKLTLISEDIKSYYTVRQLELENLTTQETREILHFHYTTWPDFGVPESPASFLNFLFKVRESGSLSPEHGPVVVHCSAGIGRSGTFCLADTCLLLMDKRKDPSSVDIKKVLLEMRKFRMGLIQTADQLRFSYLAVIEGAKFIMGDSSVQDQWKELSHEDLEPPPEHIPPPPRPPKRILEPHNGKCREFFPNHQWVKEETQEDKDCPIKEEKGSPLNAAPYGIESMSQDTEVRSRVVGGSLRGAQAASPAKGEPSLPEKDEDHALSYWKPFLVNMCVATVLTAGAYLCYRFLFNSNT
Procedure: Example III-2: Mobility Shift Assay (MSA) Used to Determine Potency of PTPN1 Inhibitors
Compound activity was determined using in house His tagged full-length PTPN1 protein (SEQ ID NO: 3) in an in vitro enzymatic reaction. The enzymatic assay used to determine activity is a mobility shift assay using a LabChip EZ Reader by Caliper Life Sciences. The enzymatic reaction was carried out in assay buffer (50 mM HEPES pH 7.5, 1 mM EGTA, 10 mM EDTA, 0.01% Tween® 20, and 2 mM DTT). The compounds were dispensed on a white 384 well ProxiPlate™ (PerkinElmer Cat ^#6008289) plate using a Labcyte Echo® liquid handler at varying concentrations (12 point, 1:3 dilution). The enzyme (at 0.5 nM) was incubated with compound for 10 minutes at room temperature. Thereafter, the substrate (phosphorylated insulin receptor probe sequence: ((OG488)-(NH—CH2—CH2—O—CH2—CH2—O—CH2—CO)-T-R-D-I—(PY)-E-T-D-Y—Y—R—K—K—NH2) (SEQ ID NO: 2) was added at 2 μM to the plates and incubated for another 10 minutes at room temperature. Finally, a quench solution (water and 4-bromo-3-(2-oxo-2-propoxyethoxy)-5-(3-{[1-(phenylmethanesulfonyl)piperidin-4-yl]amino}phenyl)thiophene-2-carboxylic acid) was added to the plates, which were then run on the EZ Reader (excitation 488 nm, emission 530 nm) to measure % conversion (the amount of phosphorylated substrate which was de-phosphorylated by PTPN1). […] The % inhibition was then used to calculate the IC50 values.

[4] = Table 3, dihydrobenzofuran or indoline compound (X = O or NH)
[5] = 3 hours compound, 100 nM mouse IFNγ 10 minutes, read-out: B16F10 IFNγ Induced pSTAT1 EC50
[6] = Mus musculus, Table 3, dihydrobenzofuran or indoline compound (X = O or NH), read-out: pSTAT1 EC50

| SMILES | EC50 [2, 5] [nM] | EC50 [2, 6] [nM] | IC50 [3] [nM] | IC50 [1, 4] [nM] | IC50 ([1]; enzyme 0.5 nM, substrate 2 μM) [nM] | Dihydrobenzofuran or Indoline x-fold>potency biochemical [1] | Dihydrobenzofuran or Indoline x-fold>potency cellular [2] |
| --- | --- | --- | --- | --- | --- | --- | --- |
| O=C1CN(c2c(O)cc3c(c2F)C[C@H](CNCC2C4CCCC42)O3)S(=O)(=O)N1 (mixture of isomers) [Compound 126, 5-{(2R)-2-[({[(1RS,5SR)-bicyclo[3.1.0]hexan-6-yl]methyl}amino)methyl]-4-fluoro-6-hydroxy-2,3-dihydro-1-benzofuran-5-yl}-1λ^6,2,5-thiadiazolidine-1,1,3-trione] | 3670 | 3670 | 10 to 100 | 6.06 | < 10 | 5.3 | >13.6 |
| CC(C)CNC[C@@H]1Cc2c(cc(O)c(N3CC(=O)NS3(=O)=O)c2F)O1 [Compound 101, 5-[(2S)-4-fluoro-6-hydroxy-2-{[(2-methylpropyl)amino]methyl}-2,3-dihydro-1-benzofuran-5-yl]-1λ^6,2,5-thiadiazolidine-1,1,3-trione] |  |  | > 100 |  | > 100 |  |  |
| O=C1CN(c2c(O)cc3c(c2F)C[C@H](CNCCC2CCCC2)O3)S(=O)(=O)N1 [Compound 103, 5-[(2R)-2-{[(2-cyclopentylethyl)amino]methyl}-4-fluoro-6-hydroxy-2,3-dihydro-1-benzofuran-5-yl]-1λ^6,2,5-thiadiazolidine-1,1,3-trione] | 1870 |  | 10 to 100 |  | < 10 |  |  |
| CC(C)(CO)CCNC[C@H]1Cc2c(cc(O)c(N3CC(=O)NS3(=O)=O)c2F)O1 [Compound 104, 5-[(2R)-4-fluoro-6-hydroxy-2-{[(4-hydroxy-3,3-dimethylbutyl)amino]methyl}-2,3-dihydro-1-benzofuran-5-yl]-1λ^6,2,5-thiadiazolidine-1,1,3-trione] | 5110 |  | 10 to 100 |  | 10 to 100 |  |  |
| CC(C)(O)CCNC[C@H]1Cc2c(cc(O)c(N3CC(=O)NS3(=O)=O)c2F)O1 [Compound 105, 5-[(2R)-4-fluoro-6-hydroxy-2-{[(3-hydroxy-3-methylbutyl)amino]methyl}-2,3-dihydro-1-benzofuran-5-yl]-1λ^6,2,5-thiadiazolidine-1,1,3-trione] | 2950 |  | 10 to 100 |  | 10 to 100 |  |  |
| O=C1CN(c2c(O)cc3c(c2F)C[C@H](CNCCC2CC(F)(F)C2)O3)S(=O)(=O)N1 [Compound 106, 5-[(2R)-2-({[2-(3,3-difluorocyclobutyl)ethyl]amino}methyl)-4-fluoro-6-hydroxy-2,3-dihydro-1-benzofuran-5-yl]-1λ^6,2,5-thiadiazolidine-1,1,3-trione] | 1860 |  | 10 to 100 |  | < 10 |  |  |
| O=C1CN(c2c(O)cc3c(c2F)C[C@H](CNCCCC(F)F)O3)S(=O)(=O)N1 [Compound 107, 5-[(2R)-2-{[(4,4-difluorobutyl)amino]methyl}-4-fluoro-6-hydroxy-2,3-dihydro-1-benzofuran-5-yl]-1λ^6,2,5-thiadiazolidine-1,1,3-trione] | 1330 | 1330 | 10 to 100 | 13.3 | 10 to 100 | 0.7 | 2.7 |
| CC(C)(C)OC(=O)N1CCC(CNC[C@H]2Cc3c(cc(O)c(N4CC(=O)NS4(=O)=O)c3F)O2)CC1 [Compound 124, tert-butyl 4-[({[(2R)-4-fluoro-6-hydroxy-5-(1,1,4-trioxo-1λ^6,2,5-thiadiazolidin-2-yl)-2,3-dihydro-1-benzofuran-2-yl]methyl}amino)methyl]piperidine-1-carboxylate] |  |  | 10 to 100 | 13.2 | 10 to 100 | 1.1 |  |
| CC(C)CNC[C@H]1Cc2c(cc(O)c(N3CC(=O)NS3(=O)=O)c2F)N1C [Compound 156, 5-[(2R)-4-fluoro-6-hydroxy-1-methyl-2-{[(2-methylpropyl)amino]methyl}-2,3-dihydro-1H-indol-5-yl]-1λ^6,2,5-thiadiazolidine-1,1,3-trione] |  |  | > 100 |  | > 100 |  |  |

More lines, main results first:

| EC50 [2, 5] [nM] | EC50 [2, 6] [nM] | IC50 [3] [nM] | SMILES | IC50 [1, 4] [nM] | IC50 ([1]; enzyme 0.5 nM, substrate 2 μM) [nM] | Dihydrobenzofuran or Indoline x-fold>potency biochemical [1] | Dihydrobenzofuran or Indoline x-fold>potency cellular [2] |
| --- | --- | --- | --- | --- | --- | --- | --- |
| 853 |  | 10 to 100 | CC(C)CNC[C@H]1Cc2c(cc(O)c(N3CC(=O)NS3(=O)=O)c2F)O1 [Compound 100, 5-[(2R)-4-fluoro-6-hydroxy-2-{[(2-methylpropyl)amino]methyl}-2,3-dihydro-1-benzofuran-5-yl]-1λ^6,2,5-thiadiazolidine-1,1,3-trione] |  | < 10 |  |  |
| 3420 |  | 10 to 100 | CC(C)CNCC1Cc2c(cc(O)c(N3CC(=O)NS3(=O)=O)c2F)O1 (stereo not shown) [Compound 102, 5-(4-fluoro-6-hydroxy-2-{[(2-methylpropyl)amino]methyl}-2,3-dihydro-1-benzofuran-5-yl)-1λ^6,2,5-thiadiazolidine-1,1,3-trione] |  | 10 to 100 |  |  |
|  |  | 10 to 100 | O=C1CN(c2c(O)cc3c(c2F)C[C@H](CNCCCOCC(F)F)O3)S(=O)(=O)N1 [Compound 123, 5-[(2R)-2-({[3-(2,2-difluoroethoxy)propyl]amino}methyl)-4-fluoro-6-hydroxy-2,3-dihydro-1-benzofuran-5-yl]-1λ^6,2,5-thiadiazolidine-1,1,3-trione] | 11.2 | 10 to 100 | 2.1 |  |
|  |  | > 100 | O=C1CN(c2c(O)cc3c(c2F)C[C@H](CNCC(O)C(F)F)N3)S(=O)(=O)N1 (stereo partly drawn) [Compound 157, 5-[(2R)-2-{[(3,3-difluoro-2-hydroxypropyl)amino]methyl}-4-fluoro-6-hydroxy-2,3-dihydro-1H-indol-5-yl]-1λ^6,2,5-thiadiazolidine-1,1,3-trione] |  | > 100 |  |  |
